According to patent US20040152783A1, “Controlled absorption of admixed thyroid hormone formulations” (priority 2002, published 2004):
Where two headings read alike, the source gives them in different places.

Assay: Kinetics of T3 absorption after oral dosing in rats; total serum T3 by ELISA
Type: in vivo, Sprague-Dawley rats
Settings: for Peak of Delta Curve: oral solution; for Peak of Delta Curve / Deltamax / delta AUC / Tmax: serum TT3; for Percent T3 sodium (AUC 0-24) / Percent T3 sodium (Deltamax) / Percent T3 sodium (Peak of Delta Curve) / Percent T3 sodium (Tmax) / AUC* (0-24) / Deltamax / delta AUC / Tmax: oral; for AUC* (0-24): from mean delta TT3 curve above 0 hour value
Procedure: Defined μg/kg doses were delivered as oral solutions in 0.5% sodium bicarbonate buffer. Rats were dosed immediately following 0 hour serum collection. Serum was collected from rats at two, four, six, nine, 12 and 24 hours after dosing. Total serum T3 concentrations were determined by ELISA using a commercially available kit (Total Triiodothyronine (total T3) ELISA KIT, product #1700, ALPHA DIAGNOSTIC™, San Antonio, Tex.).

[1] = Example 1, T3 sodium 12 μg/kg vs T4 sodium 162 plus T3 sodium 12 μg/kg (13.5:1)
[2] = Example 2, T3 sodium 6 μg/kg vs T4 sodium 54 plus T3 sodium 6 μg/kg (9:1)
[3] = Example 3, T3 sodium 4 μg/kg vs T4 sodium 16 plus T3 sodium 4 μg/kg (4:1)
[4] = Example 4, T3 sodium 4 μg/kg vs T4 sodium 4 plus T3 sodium 4 μg/kg (1:1)
[5] = Example 5, T3 sodium 15 μg/kg vs T4 sodium 6 plus T3 sodium 15 μg/kg (0.4:1)
[6] = Example 6, T3 sodium 15 μg/kg vs T4 sodium 1.5 plus T3 sodium 15 μg/kg (0.1:1)

Peak of Delta Curve (Example 1, T3 sodium 12 μg/kg alone vs T4 sodium 162 μg/kg plus T3 sodium 12 μg/kg (T4:T3 13.5:1)): 142 ng/dL
Percent T3 sodium (AUC 0-24) [1]: 100%
Percent T3 sodium (Deltamax) [1]: 100%
Percent T3 sodium (Peak of Delta Curve) [1]: 100%
Percent T3 sodium (Tmax) [1]: 100%
AUC* (0-24) [1]: 1,469 ng/dLh
Deltamax [1]: 156 ng/dL
delta AUC [1]: 1,471 ng/dL·hr
Peak of Delta Curve (Example 2, T3 sodium 6 μg/kg alone vs T4 sodium 54 μg/kg plus T3 sodium 6 μg/kg (T4:T3 9:1)): 232 ng/dL
Percent T3 sodium (AUC 0-24) [2]: 100%
Percent T3 sodium (Deltamax) [2]: 100%
Percent T3 sodium (Peak of Delta Curve) [2]: 100%
Percent T3 sodium (Tmax) [2]: 100%
AUC* (0-24) [2]: 2,212 ng/dLh
Deltamax [2]: 232 ng/dL
delta AUC [2]: 2,384 ng/dL·hr
Peak of Delta Curve (Example 3, T3 sodium 4 μg/kg alone vs T4 sodium 16 μg/kg plus T3 sodium 4 μg/kg (T4:T3 4:1)): 65 ng/dL
Percent T3 sodium (AUC 0-24) [3]: 100%
Percent T3 sodium (Deltamax) [3]: 100%
Percent T3 sodium (Peak of Delta Curve) [3]: 100%
Percent T3 sodium (Tmax) [3]: 100%
AUC* (0-24) [3]: 1,193 ng/dLh
Deltamax [3]: 69 ng/dL
delta AUC [3]: 1,193 ng/dL·hr
Peak of Delta Curve (Example 4, T3 sodium 4 μg/kg alone vs T4 sodium 4 μg/kg plus T3 sodium 4 μg/kg (T4:T3 1:1)): 65 ng/dL
Percent T3 sodium (AUC 0-24) [4]: 100%
Percent T3 sodium (Deltamax) [4]: 100%
Percent T3 sodium (Peak of Delta Curve) [4]: 100%
Percent T3 sodium (Tmax) [4]: 100%
AUC* (0-24) [4]: 1,193 ng/dLh
Deltamax [4]: 69 ng/dL
Tmax [4]: 2.4 h
delta AUC [4]: 1,193 ng/dL·hr
Peak of Delta Curve (Example 5, T3 sodium 15 μg/kg alone vs T4 sodium 6 μg/kg plus T3 sodium 15 μg/kg (T4:T3 0.4:1)): 167 ng/dL
Percent T3 sodium (AUC 0-24) [5]: 100%
Percent T3 sodium (Deltamax) [5]: 100%
Percent T3 sodium (Peak of Delta Curve) [5]: 100%
Percent T3 sodium (Tmax) [5]: 100%
AUC* (0-24) [5]: 1,732 ng/dLh
Deltamax [5]: 170 ng/dL
delta AUC [5]: 1,732 ng/dL·hr
Peak of Delta Curve (Example 6, T3 sodium 15 μg/kg alone vs T4 sodium 1.5 μg/kg plus T3 sodium 15 μg/kg (T4:T3 0.1:1)): 138 ng/dL
Percent T3 sodium (AUC 0-24) [6]: 100%
Percent T3 sodium (Deltamax) [6]: 100%
Percent T3 sodium (Peak of Delta Curve) [6]: 100%
Percent T3 sodium (Tmax) [6]: 100%
AUC* (0-24) [6]: 1,762 ng/dLh
Deltamax [6]: 146 ng/dL
delta AUC [6]: 1,762 ng/dL·hr
Tmax (Sprague-Dawley, rat, 15 ug/kg, Example 6, T3 sodium 15 μg/kg vs T4 sodium 1.5 plus T3 sodium 15 μg/kg (0.1:1), read-out: Tmax): 5.6 h
Tmax (Sprague-Dawley, rat, Example 1, T3 sodium 12 μg/kg vs T4 sodium 162 plus T3 sodium 12 μg/kg (13.5:1), read-out: Tmax): 5.2 h
Tmax (Sprague-Dawley, rat, Example 2, T3 sodium 6 μg/kg vs T4 sodium 54 plus T3 sodium 6 μg/kg (9:1), read-out: Tmax): 2 h
Tmax (Sprague-Dawley, rat, Example 3, T3 sodium 4 μg/kg vs T4 sodium 16 plus T3 sodium 4 μg/kg (4:1), read-out: Tmax): 2.4 h
Tmax (Sprague-Dawley, rat, Example 5, T3 sodium 15 μg/kg vs T4 sodium 6 plus T3 sodium 15 μg/kg (0.4:1), read-out: Tmax): 4.6 h
Compound: N[C@@H](Cc1cc(I)c(Oc2ccc(O)c(I)c2)c(I)c1)C(=O)O [T3 sodium, liothyronine sodium]
